Test results from patent publication US8871976B2, “Chalcone structure fluorescence dye for embryonic stem cell probe” (National University of Singapore, priority 2010, dated 2014).

Tests used:
mESC and MEF = test: Secondary screening by flow cytometry (mESC and MEF incubated separately); type: cell-based, mouse; details: 2 μM, 1 hour
Experimental: To evaluate the application of chalcone derivatives as ESC-selective probes, 320 chalcone compounds were screened in mouse ESC (mESC) and mouse embryonic fibroblast (MEF) feeder cells prepared on 384-well cell culture microplates. From the image-based primary screening, 8 compounds that stained mESC consistently with stronger intensity than MEF were selected. For the secondary screening, mESC and MEF were incubated separately with each of the hit compounds and subsequently analyzed using flow cytometry.
(§1) MEFs and mESCs were cultured in 60 mm culture dish for 1 hour in the presence of 2 μM of hit compounds, including CDg4. The cells were harvested by trypsin treatment, washed with PBS and resuspended in PBS. The fluorescence intensity of the cells was measured on Flow Cytometry (BD™ LSR II) with FITC ([…], emission at 560 nm). The dot plot images for each cell type were overlaid using FlowJo7 (Three Star Inc.) For FACS MEF and mESC were cultured in a same dish and the sample was prepared as described above for flow cytometry. The cells gated into SSClow CDgreen4 bright and SSChigh CDgreen4 dim regions were collected using a FACS machine (BD FACSAria™).

mixture of mESC and MEF = test: Enrichment of mESC from mESC/MEF mixture using FACS and fluorescence microscopy; type: cell-based, mouse; details: for mESC enrichment / sorting from mixed-cell population: FACS, mESC and MEF in same dish; for selective staining of ESC versus MEF feeder: live mESC cultured on MEF feeder, fluorescence microscopy
Experimental: To confirm the secondary screening data, a mixture of mESC and MEF was incubated with […]. The cell mixture was sorted using Fluorescence-Activated Cell Sorting (FACS).
as §1

[1] = Fluorescence property measurement; type: physicochemical
Experimental: All reactions were performed in oven-dried glassware under a positive pressure of nitrogen. Unless otherwise noted, starting materials and solvents were purchased from Aldrich and Acros Organics and used without further purification. Analytical TLC was carried out on Merck 60 F254 silica gel plate (0.25 mm layer thickness) and visualization was done with UV light. Column chromatography was performed on Merck 60 silica gel (230-400 mesh). NMR spectra were recorded on a Bruker Avance 300 NMR spectrometer. Chemical shifts are reported as δ in units of parts per million (ppm) and coupling constants are reported as a J value in Hertz (Hz). Mass of all the compounds was determined by LC-MS of Agilent Technologies with an electrospray ionization source. All fluorescence assays were performed with a Gemini XS fluorescence plate reader.
10 μM solutions in DMSO were prepared and the absorption and emission of library compounds was measured. FIG. 3 is a representative absorbance and fluorescence spectrum.

[2] = tested on: induced pluripotent stem cell (iPSC); test: Staining and FACS isolation of induced pluripotent stem cells; type: cell-based, mouse; details: iPSC from MEF of Oct4-GFP transgenic mice
Experimental: The iPS cells were maintained in mESC culture medium which was changed every day until designated time point. 4 dpi iPS was incubated with 2 μM of CDg4 for 1 hr at 37° C. The cells were harvested by trypsin treatment, washed with PBS and resuspended in PBS. The cells gated into SSClow CDg4 bright (R2) and SSChigh CDg4 dim (R1) regions were collected using a FACS machine (BD FACSAria™).
CDg4 was applied to induced pluripotent stem cell (iPSC) which was generated from MEF of transgenic mice that express GFP under the control of Oct4 (also known as Pou5f1) promoter. […] FACS was used to isolate early iPS cell population stained by CDg4. (FIG. 2). Isolation of the early iPS cell population will facilitate gene profiling using DNA microarray of this cell population. While gene expression profiling for mixture populations or using cell lines are reported, with lack of direct marker or probes for early iPS, it was not possible to study with purified early iPS.
The retroviral packaging cell, PlatE cell, was maintained in DMEM containing 10% FBS, 100 U/ml penicillin, 100 μg/ml streptomycin, 10 μg/ml blasticidin 5 and 1 μg/ml puromycin. […]

λem [1]: 560 nm
λex [1]: 430 nm
SMILES: C=CC(=O)Nc1ccc(C(=O)/C=C/c2ccc(N(C)CCO)cc2)cc1 [CDg4]
selectivity for mESCs (side scatter and fluorescence intensity dot plot overlay of mESC and MEF) (mESC and MEF): most selective for mESCs among the 8 hit compounds
mESC enrichment / sorting from mixed-cell population (mixture of mESC and MEF): selective sorting and isolation from mixture of Feeder cells even up to day 5
mESC enrichment / sorting from mixed-cell population (mixture of mESC and MEF; listed as CD4): can be used for mESC enrichment from a mixed-cell population
selective staining of ESC versus MEF feeder (mixture of mESC and MEF): much more brightly stained by CDg4 than MEF
selective staining of ESC versus MEF feeder (mixture of mESC and MEF; listed as CDgreen4): selectively stains embryonic stem cells (ESC) and iPSC in a feeder cell-based culture system
staining of iPSC colony [2]: selectively stained the iPSC colony
